Measurements reported in patent US7596407B2, “Transdermal iontophoretic delivery of piperazinyl-2(3H)-benzoxazolone compounds” (priority 2004, dated 2009).

What was measured:
[1] = Iontophoretic transport across hairless rat skin, vertical Franz diffusion cells; type: in vitro ADME; conditions: 30 mM NaCl; for change of iontophoretic flux with active substance concentration (FIG. 4): phosphate buffer pH 4.0
Description: Hairless rats were euthanized by inhalation of carbon dioxide using an exposure chamber designed for such use half hour before start of experiment. The skin from the abdomen was carefully removed, making sure no muscle or fat was attached to the skin. The skin was then cut into small squares to fit the Franz diffusion set (Membrane Transport System, PermeGear, U.S.A) and placed in 0.1 M potassium phosphate buffer until mounted.
(§1) 7-(4-methyl-1-piperazinyl)-2(3H)-benzoxazolone as a HCl salt was dissolved in 10 mM sodium citrate solution. The pH was adjusted to pH 5.5 with 10 mM citric acid. 7-(4-benzyl-1-piperazinyl)-2(3H)-benzoxazolone as a mesylate salt was dissolved in 0.1 M potassium phosphate buffer. The pH was adjusted to pH 4.0 using o-phosphoric acid.
Iontophoresis experiments with 7-(4-benzyl-1-piperazinyl)-2(3H)-benzoxazolone were performed using vertical Franz diffusion cells (Membrane Transport System, PermeGear, U.S.A) hooked up to a Keithley 2400 source meter and the current monitored using a multimeter. The donor half was of the cell was exposed to room temperature (25° C.) while the receptor half was maintained at 37° C. Receptor compartment was continuously stirred. Freshly excised hairless rat skin was mounted on the vertical diffusion cells, after the receptor compartment had been filled with a suitable receptor media, which can maintain the sink condition. The receptor media had the same composition as the donor solution without the drug, so that the sink conditions could be maintained. The formulation was placed in the donor compartment. A silver wire was used as the anode in the donor and a silver/silver chloride wire was used as the cathode in the receptor. Current was applied for 3 hours using a constant current power source. However, sampling was continued till 24 hrs to see if enhanced delivery will stop on terminating current. Samples were taken at pre-determined time intervals from the receptor and analyzed by the HPLC as described below. Samples were replaced with fresh receptor medium and this was taken into consideration in the calculations.
7-(4-benzyl-1-piperazinyl)-2(3H)-benzoxazolone was analyzed using HPLC with UV detection (Waters Alliance system). A Chromsep SS column was used (150*3 mm L*i.d.) with particle size of 5 μm thermostatted at 40° C. The mobile phase was made using 1.54 g ammonium acetate in 460 ml of water (pH adjusted to 4.6 using acetic acid) and 540 ml of methanol and degassed. The flow rate was 0.5 ml/min. The detection wavelength was 243 nm. Injection volume was 10 μl.

[2] = Iontophoretic transport across human stratum corneum, three-chamber continuous flow-through diffusion cells; type: in vitro ADME; conditions: for iontophoretic flux (averages±s.e.m.): 4 g/l NaCl, citrate buffer pH 5.5, 0.5 mA/cm^2; for mean transport during the iontophoretic period: citrate buffer pH 5.5, 0.5 mA/cm^2, no NaCl added; for mean transport during the iontophoretic period (averages±s.e.m.): drug 35 mg/ml, pH 5.5, 0.5 mA/cm^2
Procedure: Human Stratum Corneum (HSC) was prepared from dermatomed healthy human skin. Within 24 hours after surgical removal of the human skin (abdominal or breast), residual subcutaneous fat was removed. To avoid interference with contaminating subcutaneous fat, the skin surface was carefully wiped with a tissue paper soaked in 70% ethanol. The skin was dermatomed to a thickness of about 300 μm using a Padgett Electro Dermatome Model B (Kansas City, USA). It was then incubated with the dermal side on Whatman paper soaked in a solution of 0.1% trypsin in PBS overnight at 4° C. and subsequently for 1 hour at 37° C. Then HSC was peeled off from the underlying epidermis and dermis. Remaining trypsin activity was blocked by bathing HSC in a 0.1% trypsin inhibitor solution in PBS, pH 7.4. HSC was washed several times in water and stored in a silica gel containing desiccator in a N2 environment to inhibit oxidation of lipids.
as §1
Iontophoresis experiments with 7-(4-methyl-1-piperazinyl)-2(3H)-benzoxazolone were performed using 9-channel computer controlled power supply to provide constant current (Electronics Department, Gorlaeus Laboratories, Leiden University, The Netherlands.) Alternatively the commercial available Power Supply PCT-MK1 of Moor Instruments, UK can be used. A silver plate electrode was used as an anode (e.g. Silver foil >99.99% pure, 1.0 mm thick (Aldrich article nr. 36,943-8), 5 cm long, 3 mm wide) and a silver/silver chloride electrode (prepared by repeatedly (2 or 3 times) dipping silver wire (>99.99% pure, Ø 1.0 mm (Aldrich art. Nr. 26,559-4), bended at the tip to produce a small projection (approx. 3 mm) at a right angle to the vertical electrode shaft in melted silver chloride powder (>99.999% pure, Aldrich art. Nr. 20,438-2) as a cathode. (Alternatively, the silver plate and silver/silver chloride electrodes can be prepared according to chapter 3.4.3. of Ajay K. Banga, Electrically Assisted Transdermal and Topical Drug Delivery, Taylor and Francis Group Ltd., London UK, 1998, ISBN 0-7484-0687-5. or can be purchased from a commercial supplier such as Iomed.)
All diffusion experiments were carried out at a constant current density of 0.5 mA/cm^2, using three chambers continuous flow through diffusion cells at room temperature. The diffusion set up consisted of a peristaltic pump, a fraction collector and 8 diffusion cells (for diffusion cell see FIG. 4). Stratum corneum was used for all diffusion studies. Human stratum corneum was hydrated for two hours in PBS pH 7.4 prior to mounting in the cells. Two pieces of stratum corneum were placed between the anodal and acceptor side, and between acceptor and cathodal side, with the apical side facing the anodal and cathodal compartments. Dialysis membrane (cut off 5,000 D) was used as supporting membrane for the stratum corneum. Parafilm rings were added for making a tight connection between the compartments. The temperature of the acceptor chamber was 37° C. The flow of PBS through the acceptor chamber was kept approximately constant for each cell during the experiment: 6-8 ml per hour. After six hours of passive diffusion, the current was switched on. The current was switched off at t=15 h. During a period of another 5 hours (post iontophoretic period) passive diffusion post iontophoresis was carried out. During iontophoresis, the current density was 0.5 mA/cm^2. The total resistance of the stratum corneum sheets was monitored during the experiment with two additional silver electrodes. A very low resistance is indicative of leakage of the stratum corneum in a cell. When this was observed, the diffusion data obtained were discarded. […]

[3] = HPLC-UV analysis of sample solutions for oxidation or degradation products; type: physicochemical; conditions: HPLC with UV detection, 215 nm
Procedure: 7-(4-methyl-1-piperazinyl)-2(3H)-benzoxazolone was analyzed using HPLC with UV detection (Waters Chromatography, Etten Leur, The Netherlands). A Chromsep SS column was used (250*3 mm L*i.d.) thermostatted at 30° C. The mobile phase consisted of acetonitrile/methanol/0.7 g/l ammonium acetate buffer at pH 5.6 ([…] v/v) and was used at 0.5 ml/min. The detection wavelength was 215 nm.

[4] = Solubility in donor buffer

| permeation with iontophoresis as compared to passive delivery (FIG. 5) ([1]; current densities 0, 0.1, 0.3 and 0.5 mA) | change of iontophoretic flux with active substance concentration (FIG. 4) ([1]; further increase to 10 mg/ml) | change of iontophoretic flux with active substance concentration (FIG. 4) ([1]; increase from 1 mg/ml to 5 mg/ml) | Compound | relationship between flux and current density (FIG. 5) ([1]; 5 g/ml solution, current densities 0, 0.1, 0.3 and 0.5 mA) | iontophoretic flux (averages±s.e.m.) ([2]; donor concentration 20 mg/ml) | mean transport during the iontophoretic period ([2]; donor concentration 20 mg/ml) | iontophoretic flux (averages±s.e.m.) ([2]; donor concentration 35 mg/ml) | mean transport during the iontophoretic period ([2]; donor concentration 35 mg/ml) | iontophoretic flux (averages±s.e.m.) ([2]; donor concentration 55 mg/ml) | mean transport during the iontophoretic period ([2]; donor concentration 55 mg/ml) | mean transport during the iontophoretic period ([2]; donor concentration 75 mg/ml) | mean transport during the iontophoretic period (averages±s.e.m.) ([2]; sodium chloride 0 mg/ml) | mean transport during the iontophoretic period (averages±s.e.m.) ([2]; sodium chloride 2 mg/ml) | mean transport during the iontophoretic period (averages±s.e.m.) ([2]; sodium chloride 4 mg/ml) | oxidation or degradation products in chromatograms of the sample solutions [3] | share of the maximum solubility that a 35 mg/ml solution represents ([4]; 35 mg/ml, 10 mM citrate pH 5.5, 4 mg/ml NaCl) | share of the maximum solubility that a 55 mg/ml solution represents ([4]; 55 mg/ml in citrate buffer at pH 5.5 in the presence of 4 g/l NaCl) | share of the maximum solubility that a 75 mg/ml solution represents ([4]; 75 mg/ml in citrate buffer at pH 5.5) | dependence of solubility on NaCl concentration ([4]; citrate pH 5.5, NaCl 0-4 mg/ml) |
| --- | --- | --- | --- | --- | --- | --- | --- | --- | --- | --- | --- | --- | --- | --- | --- | --- | --- | --- | --- |
| considerably enhances the permeation | no increase in iontophoretic flux | increase in iontophoretic flux | CS(=O)(=O)O.O=c1[nH]c2cccc(N3CCN(Cc4ccccc4)CC3)c2o1 [7-(4-benzyl-1-piperazinyl)-2(3H)-benzoxazolone mesylate] | linear relationship between flux and current density | – | – | – | – | – | – | – | – | – | – | – | – | – | – | – |
| – | – | – | CN1CCN(c2cccc3[nH]c(=O)oc23)CC1.Cl [7-(4-methyl-1-piperazinyl)-2(3H)-benzoxazolone monohydrochloride] | – | 409±47 μg/hr/cm^2 | 394±26 μg/hr/cm^2 | 467±74 μg/hr/cm^2 | 383±42 μg/hr/cm^2 | 580±87 μg/hr/cm^2 | 459±59 μg/hr/cm^2 | 418±31 μg/hr/cm^2 | 471±65 μg/hr/cm^2 | 377±37 μg/hr/cm^2 | 424±50 μg/hr/cm^2 | No oxidation or degradation products of the compound were observed | 80% | 85% | 85% | increases with reducing NaCl concentration |
